In patent publication US20110076377A1, “ETHOID COMPOUNDS FOR USE AS FOOD ADDITIVES” (UNIVERSITY OF VIRGINIA PATENT FOUNDATION, priority 2007, published 2011):
Residues, ends and D or L forms follow the SMILES beside them.

Key:
[1] = reported, background; cited from earlier work
[2] = Comparative stability of aspartame and aspartame ethoid in PBS solution (HPLC-MS); format: physicochemical; conditions: for half-life: 65° C., PBS pH 7.5; for Cyclized product (%) / SM (%): AUC at 214 nm; for degradation at the 12 hour time point: FIG. 1, PBS pH 7.5, 65° C.
Protocol: Solutions of Aspartame and Compound 1 were prepared by dissolving 10 mg of the subject dipeptide in 4 ml of PBS, pH=7.5. […] Aliquots (50 μl) were withdrawn at the following times: 0, 24 h, 36 h, 48 h and 60 h, and diluted with 125 μl of methanol/acetonitrile/0.1% TFA.
The samples were analyzed by HPLC-MS, using a Gilson HPLC with dual wavelengths UV detector (214 and 254 nm). The following conditions were employed: column: C18; 4.6×250 mm; 5 μmx 6A; solvent system: H2O-1% TFA/Acetonitrile-1% TFA, 1 ml/min, with a gradient of 10% organic phase to 100% organic phase in 10 minutes, followed by a 10 minute hold at 100% of organic phase. As shown in the reaction schemes above, decomposition proceeds mainly via a cyclization reaction to form the corresponding cyclized product and methanol.
The AUC (at 214 nm) values corresponding to the dipeptide and corresponding cyclized products (aspartame→diketopiperazine and aspartame ethoid→ketooxazine) are summarized in the following Table.
See, e.g., FIG. 1, which provides plots of the logarithm of percent of intact dipeptide remaining over time, in hours, for both aspartame and the methyleneoxy ethoid of aspartame. […] The rate of degradation of the methyleneoxy ethoid of aspartame is time, temperature, and pH dependent.

taste-test volunteers = test: Blind taste test of sweetening potency of aqueous solutions; format: in vivo; conditions: aqueous solutions at 1 mg/ml and 5 mg/ml, six volunteers
Protocol: The sweetening potency of Compounds 1 and 2 was established by conducting blind taste tests of aqueous solutions of each of Compound 1 and 2 compared to aqueous solutions of each of sucrose and aspartame at concentrations of both 1 mg/ml and 5 mg/ml. […] Furthermore, Compound 1, the ethoid version of aspartame, was reported to be approximately 5 to 10 times sweeter than aspartame by the taste-test volunteers.

[3] = Solution stability of methyleneoxy ethoid of neotame relative to neotame; format: physicochemical; conditions: FIG. 5B, 60° C., PBS pH 7.5, hydrolysis of methyl ester
Protocol: FIGS. 5A and 5B illustrate the temperature stability of an exemplary ethoid of neotame compared to neotame itself. […] FIG. 5B provides a comparison of the rate of degradation of the methyleneoxy ethoid of neotame versus neotame over time at 60° C. in a solution of phosphate buffered saline at pH 7.5. Specifically, FIG. 5B is a plot of the natural logarithm of the concentration of (neotame/neotame ethoid) over time. The decomposition reaction proceeds via hydrolysis of the methyl ester to the corresponding di-carboxylic acid.
The solution stability of Compound 3 at various temperatures was examined and compared to that of neotame.
The major route leading to loss of neotame is hydrolysis of the methyl ester group as shown above. […] The rates of degradation of neotame and the methyleneoxy ethoid of neotame were examined and compared. […] FIG. 5B is a plot comparing the rate of degradation of neotame to that of the corresponding ethoid.

half-life [2] [h]	Cyclized product (%) ([2]; PBS pH 7.5, 40° C., time 0 h)	SM (%) ([2]; PBS pH 7.5, 40° C., time 0 h)	Cyclized product (%) ([2]; PBS pH 7.5, 40° C., time 24 h)	SM (%) ([2]; PBS pH 7.5, 40° C., time 24 h)	Cyclized product (%) ([2]; PBS pH 7.5, 40° C., time 36 h)	SM (%) ([2]; PBS pH 7.5, 40° C., time 36 h)	Cyclized product (%) ([2]; PBS pH 7.5, 40° C., time 48 h)	SM (%) ([2]; PBS pH 7.5, 40° C., time 48 h)	Cyclized product (%) ([2]; PBS pH 7.5, 40° C., time 60 h)	SM (%) ([2]; PBS pH 7.5, 40° C., time 60 h)	degradation at the 12 hour time point [2]	SMILES	sweetness relative to sugar [1]	sweetness compared to sucrose solution (taste-test volunteers)	also measured
2.5	0	100	95	5	100	0	100	0	100	0	essentially complete	COC(=O)[C@H](Cc1ccccc1)NC(=O)[C@@H](N)CC(=O)O [Aspartame, L-aspartyl-L-phenylalanine methyl ester, reference compound] (H-Asp-Phe-OMe)	approximately 150 times		sweetness relative to an equivalent amount of sugar [1]: 150 fold
305	0	100	0	100	0	100	0	100	0	100	negligible	COC(=O)C(Cc1ccccc1)OCC(N)CC(=O)O (centres unmarked) [Compound 1, asp-CH2—O-phe]		significantly sweeter than sugar	phenylalanine formation upon degradation [2]: does not form phenylalanine; diketopiperazine formation upon degradation ([2]; Example 4): no diketopiperazine (dkkp) formation; degradation in solution at 40° C. ([2]; PBS pH 7.5, 40° C., up to 60 h): essentially no degradation was observed; improvement of stability over aspartame ([2]; half lives at 65° C., ethoid versus aspartame): over a hundred-fold; sweetness relative to aspartame (taste-test volunteers): several-fold sweeter
												CC(=O)NC(COC(CCCCN)C(=O)O)Cc1ccccc1 (centres unmarked) [Compound 2, N—Ac-Phe-CH2—O-Lys]		significantly sweeter than sugar	
												COC(=O)C(Cc1ccccc1)OCC(CC(=O)O)NCCC(C)(C)C (centres unmarked) [Compound 3]			rate of degradation compared to neotame [3]: nearly identical
												O=C1NS(=O)(=O)c2ccccc21 [saccharin]	300-450 times		
